Assay results from US10253085B2, “CD31 peptides for the treatment of thrombotic or autoimmune disorders” (INSERM (INSTITUT NATIONAL DE LA SANTE ET DE LA RECHERCHE …, priority 2008, dated 2019).
Residues, ends and D or L forms follow the SMILES beside them.

Key:
Format in all cases: cell-based, mouse
[1] = test system: Spleen cells from C57Bl/6 mice; test: Calcium mobilisation assay in Fluo-3AM-loaded spleen cells; conditions: anti-CD3/CD28, peptide 100 μM; compared with anti-CD31 antibody cross-linking
Method: Spleen cells from C57Bl/6 mice were prepared as described in Caligiuri et al. (2005 Arterioscler Thromb Vasc Biol 25:1659-1664). Cells were incubated with Fluo-3AM (Invitrogen, # F1242) as per the instructions of the manufacturer. Fluorescence of calcium-bound tracer was measured in the FITC channel on an LSRII® cytometer (BD Biosciences) prior to and during 60 seconds following the addition of hamster anti-mouse CD3/CD28 monoclonal antibodies (40 μg/ml each) and rat/hamster compBead® (1:50) either alone or in the presence of rat anti-mouse CD31 antibody (clone 390, 10 μg/ml) or in the presence of CD31 peptide 551-574 (100 μM). Negative controls included rat IgG isotype control and scramble peptide. Antibodies and compBeads® were from BD Biosciences.

[2] = test system: spleen cells from CD31^−/− mice; test: Proliferation in response to TCR stimulation, CD31-/- spleen cells
Method: CD8^+ T cell-mediated cytolytic activity against allogeneic mouse aortic smooth muscle cells and measurement of macrophage gelatinase (MMP-2/9) activity were performed as previously described for human cells in Caligiuri et al. (2006 Arterioscler Thromb Vasc Biol 26:618-623) using kits and reagents from Invitrogen. Briefly, primary cultures of FVB/N mouse aorta smooth muscle cells were labelled with the lipophylic tracer DIO (green) and co-cultured for 3 hours with CD8+ T cell-enriched spleen cells from C57Bl/6 mice (n=3 scramble peptide and n=3 peptide 551-574, 50 μM). Cytolysis was evaluated by intracellular accumulation of propidium iodide (PI). Cells were analysed by flow cytometry and the % of cytolysis was calculated by expressing the number of dead (PI+) cells among the target (DIO+) cells. Intracellular MMP-2/9 (gelatinase) activity was measured by flow cytometry in 7-day bone-marrow derived macrophages from C57Bl/6 mice (n=3 scramble peptide and n=3 peptide 551-574, 50 μM) three hours after the incorporation of OregonGreen® gelatine (MFI). T-cell proliferation was performed using either human peripheral blood mononuclear cells of spleen cells from C57Bl/6 (CD31^+/+) and CD31^−/− mice (Charles River France) as previously described (Caligiuri et al. 2005 Arterioscler Thromb Vasc Biol 25:1659-1664). Briefly, cells were plated in triplicates at 0.2×10^6 cells/well in a U bottom 96-well plate in complete medium (RPMI 1640, 1% pyruvate, 1% glutamine, 1% penicillin-streptomicyne-fungizone, 10% decomplemented fetal calf serum, all from Invitrogen) containing 1 μg/ml anti-mouse CD3/CD28 or 5 μg/ml anti-human CD3 antibodies (BD) as appropriate. CD31 (551-574) and scramble peptide at 25, 50 and 100 μM final concentration were deposited in the wells just before cell plating. Plated cells were cultured for 72 hours in 5% CO2 at 37° C. (^3H) thymidine (0.5 μCi/well) was added for the last 16 hours and proliferation evaluated using a Tomtec harvester and analysis on a Wallac micro beta counter. Data are expressed as mean±SEM of cpm in triplicates.

[3] = test system: CD4+ cells from C57Bl6 mice; test: CD4+ T cell activation, early activation marker CD69 by flow cytometry; conditions: 18 hours culture
Method: Alternatively, the T-cell proliferation assay may comprise comparing expression levels of the early activation marker CD69 in T-cells cultured either in the presence or in the absence of the compound to be tested. This assay may for example be performed as follows: • providing purified CD4+ cells (e.g. purified from C57B16 mice); • stimulating said CD4+ cells by addition of anti-CD3 purified antibodies and bone marrow derived dendritic cells; • culturing the cells for about 18 hours; and • analyzing said cells for the expression of the early activation marker CD69, e.g. by flow cytometry; and • comparing CD69 expression in the presence of the compound to be tested.
The immunosuppressive properties of PepReg (10aa) vs the 23 aa parent peptide were evaluated in vitro. Negatively purified CD4+ cells from C57Bl6 mice were stimulated by soluble anti-CD3 purified antibodies and bone marrow derived dendritic cells. Cells from triplicate wells were analyzed for the expression of the early activation marker CD69 after 18 hours culture in complete RPMI medium supplemented with 10% fetal calf serum.

[4] = test system: MMP-2/9 (gelatinase) activity in bone-marrow derived macrophages; test: Macrophage gelatinase (MMP-2/9) activity; conditions: peptide 50 μM
Method: CD8^+ T cell-mediated cytolytic activity against allogeneic mouse aortic smooth muscle cells and measurement of macrophage gelatinase (MMP-2/9) activity were performed as previously described for human cells in Caligiuri et al. (2006 Arterioscler Thromb Vasc Biol 26:618-623) using kits and reagents from Invitrogen. Briefly, primary cultures of FVB/N mouse aorta smooth muscle cells were labelled with the lipophylic tracer DIO (green) and co-cultured for 3 hours with CD8+ T cell-enriched spleen cells from C57Bl/6 mice (n=3 scramble peptide and n=3 peptide 551-574, 50 μM). Cytolysis was evaluated by intracellular accumulation of propidium iodide (PI). Cells were analysed by flow cytometry and the % of cytolysis was calculated by expressing the number of dead (PI+) cells among the target (DIO+) cells. Intracellular MMP-2/9 (gelatinase) activity was measured by flow cytometry in 7-day bone-marrow derived macrophages from C57Bl/6 mice (n=3 scramble peptide and n=3 peptide 551-574, 50 μM) three hours after the incorporation of OregonGreen® gelatine (MFI). […] (^3H) thymidine (0.5 μCi/well) was added for the last 16 hours and proliferation evaluated using a Tomtec harvester and analysis on a Wallac micro beta counter. Data are expressed as mean±SEM of cpm in triplicates.

## CSCC[C@H](NC(=O)[C@H](CO)NC(=O)[C@@H](N)CO)C(=O)N[C@@H](CCCNC(=N)N)C(=O)N[C@H](C(=O)N[C@@H](CO)C(=O)N1CCC[C@H]1C(=O)N[C@@H](CCCNC(=N)N)C(=O)N[C@@H](CO)C(=O)N[C@@H](CO)C(=O)N[C@H](C(=O)N[C@@H](CC(C)C)C(=O)N[C@@H](C)C(=O)N[C@H](C(=O)N[C@@H](CCCNC(=N)N)C(=O)N[C@H](C(=O)N[C@@H](Cc1ccccc1)C(=O)N[C@@H](CC(C)C)C(=O)N[C@@H](C)C(=O)N1CCC[C@H]1C(=O)N[C@@H](Cc1c[nH]c2ccccc12)C(=O)N[C@@H](CCCCN)C(=O)N[C@@H](CCCCN)C(=O)O)C(C)C)C(C)C)[C@@H](C)O)[C@@H](C)O [peptide 551-574] (H-SSMRTSPRSSTLAVRVFLAPWKK-OH)
[1]
  inhibition of TCR-induced calcium mobilization: as an efficient immunoregulatory strategy as it is the co-ligation of CD3 and CD28 with the distal portion of CD31
[2]; highest dose, 100 μM
  proliferation of CD31-/- spleen cells: effect at 100 μM dose also on cells lacking CD31
[2]; highest dose, 100 μM, listed as mouse CD31 peptide 551-574
  proliferation of CD31-/- spleen cells: only the highest dose of the peptide affect proliferation
[2]; low dose of the peptide
  proliferation of CD31-/- spleen cells: no effect
[3]
  dose at which suppression of CD69 expression was observed: 100 µg/mL
[4]
  activity of matrix degrading enzymes (MMP-2/9) in bone-marrow derived macrophages: inhibited
